Results as given in patent US8092825B2, “Glycan binding proteins as therapeutic targets for retinal disorders and treatment methods based thereon” (The University of Tennessee Research Foundation, priority 2007, dated 2012).
Entries after “also recorded” stand apart in the source; their conditions may differ.

Key:
[1] = test system: photoreceptor OS membrane assembly in RPE-deprived retinas; conditions: previous studies (60, 61); cited from earlier work
[2] = test system: xrds38 isoform of Xenopus peripherin2; test: Antisense oligonucleotide knockdown in isolated Xenopus laevis eye rudiments; format: cell-based; conditions: steady-state level vs retinas with intact RPE
Source text: We have developed an assay system using intact isolated Xenopus laevis eye rudiments coupled with antisense oligonucleotides that is well suited to evaluating the functional role of specific gene products, e.g., in OS membrane assembly. As an example of the capability of this assay system, we generated a loss-of-function model for peripherin2, a genetically and phenotypically well-characterized gene (76-82). Photoreceptors of Xenopus laevis express three distinct isoforms of the peripherin2 gene; cones express xrds38 exclusively, whereas rods express […] xrds38 (83). For purposes of validation of the antisense assay system, our evaluation was directed to xrds38. Phosphorothioated oligonucleotides (two 20-base antisense oligonucleotides and one 20-base sense oligonucleotide) derived from the 5' end of the coding sequences of the xrds38 isoform of Xenopus peripherin2 were utilized. Additional controls included: retinas with an intact RPE, and retinas devoid of RPE with 5 mM exogenous lactose added to the medium. […] The percentage of retinal cells that had positive uptake of the FITC-conjugated oligonucleotide was determined by comparing the volume of bright to dark areas in optical sections obtained with the confocal microscope. […] The steady-state levels of each protein were compared to the levels detected in control retinas maintained with an intact RPE cell layer.

[3] = test system: photoreceptor OS membrane assembly in RPE-deprived retinas; test: In vitro assay of photoreceptor outer segment (OS) membrane assembly in RPE-deprived Xenopus laevis tadpole retinas; format: cell-based; conditions: for average OS organizational grade (mean±SEM; grade 4 = 100% organization): 5×10^−3 M sugar, three days in culture; for ability to promote OS assembly in the presence of the Müller cell inhibitor: with 1×10^−5 M α-AAA, IPTG at 5×10^−5 M
Source text: We have used various oligosaccharides at concentrations ranging over four orders of magnitude to evaluate the ability of these oligosaccharides to support OS membrane assembly in RPE-deprived retina, using a Xenopus laevis system that allows for convenient analysis of OS membrane formation in vitro. In the RPE-deprived cultures, the RPE continues to be present as a cluster of cells at the ora serrata; however throughout the posterior pole and periphery of the retina, the RPE layer has been removed from its normal position adjacent to the photoreceptors.
Intact retinas were removed from stage 33/34 Xenopus laevis tadpoles and placed into culture in Niu-Twitty medium for three days as described above. Using this paradigm, all OS material is elaborated while in culture. […]

[4] = test system: putative retinal glycan receptor on Müller cells; test: Binding of biotinylated-NA3 to embryonic retinas, anti-biotin immunostaining and confocal microscopy; design: species or system Xenopus laevis; conditions: biotinylated-NA3 alone
Source text: Embryonic Xenopus laevis retinas were exposed to two experimental conditions: (1) biotinylated-NA3; and (2) biotinylated-NA3 with a molar excess of IPTG as a competitive sugar, to eliminate non-specific interactions of NA3 with retinal proteins. After exposure to the sugars followed by immunostaining using a mouse anti-biotin primary antibody and a chicken anti-mouse secondary antibody coupled to Alexa fluor 594 using standard protocols, eyes were bisected and viewed using a confocal microscope.
2. Localization of the glycan receptor using biotinylated-NA3 probe. RPE-deprived retinas from stage 33/34 Xenopus laevis tadpoles are exposed to Niu-Twitty medium containing 10^−7 M biotinylated-NA3 for 3 hours, followed by fixation in 4% paraformaldehyde. Control retinas are incubated in NA3+10^−5 M IPTG to reveal non-specific binding of the NA3 ligand. Subsequent procedures are identical to those described above for immunohistochemical localization. In this instance, however, the following primary and secondary antibodies are utilized: anti-biotin, mouse IgG (Molecular Probes) as primary antibody; and anti-mouse chicken IgG labeled with Alexa Fluor 488 (Molecular Probes). To confirm the localization to a particular retinal cell type, sections are co-stained with antisera that are cell type-specific (e.g., directed against Müller cell- or photoreceptor-specific gene products).

Müller cells = conditions: 1×10^−5 M, RPE-supported retinas; cited from earlier work

OC[C@H]1O[C@@H](O[C@H]2[C@H](O)[C@@H](O)C(O)O[C@@H]2CO)[C@H](O)[C@@H](O)[C@H]1O (some centres unmarked) [lactose]
ability to let OS organize in the absence of the RPE (permissive / non-permissive sugars) [1]: permit OS to organize | opsin protein level relative to control [2]: not significantly different from controls | peripherin2 protein level relative to control [2]: slightly elevated above control | support of OS assembly in the absence of RPE ([3]; 5×10^−3 M (5 mM)): supports the proper formation of nascent OS; also recorded: OS assembly is supported | concentration that optimally supports OS assembly (maximum effect) ([3]; RPE-deprived retinas): 5000 µM | share of OS membranes highly organized ([3]; RPE-deprived retinas, 5×10^−3 M): 50 to 75% | average OS organizational grade (mean±SEM; grade 4 = 100% organization) ([3]; RPE-deprived retinas): 2.50±0.28

O=C[C@@H](O)[C@@H](O)[C@H](O)[C@H](O)CO [mannose]
ability to let OS organize in the absence of the RPE (permissive / non-permissive sugars) [1]: fail to exert any organizational effect | support of OS assembly in the absence of RPE ([3]; 5×10^−3 M (5 mM)): does not favorably affect the folding of OS; also recorded: fails to support the proper assembly of OS | average OS organizational grade (mean±SEM; grade 4 = 100% organization) ([3]; RPE-deprived retinas): 0.52±0.22

C[C@H](O)[C@@H](O)[C@@H](O)[C@H](O)C=O [fucose]
ability to let OS organize in the absence of the RPE (permissive / non-permissive sugars) [1]: fail to exert any organizational effect

CC(C)S[C@@H]1O[C@H](CO)[C@H](O)[C@H](O)[C@H]1O [IPTG, isopropyl beta-D-thiogalactopyranoside]
average grade of OS membranes assembled during exposure to the sugar (early part) ([3]; 5×10^−5 M IPTG with 3H-leucine for two days): about 2.88±0.37 | concentration that optimally supports OS assembly (maximum effect) ([3]; RPE-deprived retinas): 50 µM | fold lower concentration than lactose for comparable effect on OS assembly ([3]; RPE-deprived retinas): 100 fold | average OS grade at maximum response ([3]; RPE-deprived retinas, 5×10^−5 M IPTG): 2.61±0.37 | ability to promote OS assembly in the presence of the Müller cell inhibitor ([3]; RPE-deprived retinas): severely diminished | average grade of OS membranes assembled after removal of the sugar (later stage) ([3]; two further days in non-supplemented medium after IPTG): 1.21±0.31

O=C[C@H](O)[C@@H](O)[C@@H](O)[C@H](O)CO [galactose]
ability to let OS organize in the absence of the RPE (permissive / non-permissive sugars) [1]: permit OS to organize

asialo, galactosylated, biantennary (NA2) oligosaccharide
concentration that optimally supports OS assembly (maximum effect) ([3]; RPE-deprived retinas): 0.005 µM

asialo, galactosylated, triantennary (NA3) oligosaccharide
support of OS assembly in the absence of RPE ([3]; 5×10^−10M): robust support of OS assembly | concentration that optimally supports OS assembly (maximum effect) ([3]; RPE-deprived retinas): 0.0005 µM | binding to photoreceptors [4]: did not bind to any portion of photoreceptors

NC(CCCC(=O)O)C(=O)O (stereo not drawn) [α-AAA, Alpha-aminoadipic acid]
effect on Müller cell morphology and protein expression patterns (Müller cells): selective alterations | effect on ability of photoreceptors to synthesize opsin (Müller cells): no affect | effect on assembly of nascent OS membranes (Müller cells): interfere with the ability of these cells to properly assembly nascent OS membranes

B1: PEDF: pigment epithelium derived factor, RPE-secreted protein (protein, UniProt P36955 20-418, looked up)
Pigment epithelium-derived …: QNPASPPEEGSPDPDSTGALVEEEDPFFKVPVNKLAAAVSNFGYDLYRVRSSTSPTTNVLLSPLSVATALSALSLGAEQRTESIIHRALYYDLISSPDIHGTYKELLDTVTAPQKNLKSASRIVFEKKLRIKSSFVAPLEKSYGTRPRVLTGNPRLDLQEINNWVQAQMKGKLARSTKEIPDEISILLLGVAHFKGQWVTKFDSRKTSLEDFYLDEERTVRVPMMSDPKAVLRYGLDSDLSCKIAQLPLTGSMSIIFFLPLKVTQNLTLIEESLTSEFIHDIDRELKTVQAVLTVPKLKLSYEGEVTKSLQEMKLQSLFDSPDFSKITGKPIKLTQVEHRAGFEWNEDGAGTTPSPGLQPAHLTFPLDYHLNQPFIFVLRDTDTGALLFIGKILDPRGP
ability to promote OS assembly in the presence of the Müller cell inhibitor ([3]; RPE-deprived retinas): able to support proper membrane folding
